Several values for one entry are separate records, joined by “and”; a condition that tells them apart may be missing. Equal entries are not always repeated.
Tests used:
PD-1/PD-L1 interaction = molecular target: T1, PD-1/PD-L1 interaction (Homo sapiens, UniProt Q9NZQ7); test: PD-1/PD-L1 blockade assay (pair ELISA); assay type: biochemical; conditions: for blockade effect on the PD-1/PD-L1 interaction (in words): test samples at 10 and 100 μM
T1 construct: purchased ACRO Biosystems

human PD-L1 protein = molecular target: T2, human PD-L1 protein (Homo sapiens, UniProt Q9NZQ7); test: PD-L1 binding assay with SPR (Biacore T200); conditions: for Kd: immobilized human PD-L1 (Fc Tag); for kon: association rate, read-out: PD-L1 Ka
T2 construct: Fc; purchased ACRO Biosystems

human PD-1 protein = molecular target: T3, human PD-1 protein (Homo sapiens, UniProt Q15116); test: PD-1 binding assay with SPR (Biacore T200); conditions: for kon: association rate, read-out: PD-1 Ka; for Kd: immobilized human PD-1 (Fc Tag)
T3 construct: Fc; purchased ACRO Biosystems
Protocol: The PD-1/PD-L1 binding affinity of test natural compounds was measured on a SPR Biacore T200 instrument (GE Healthcare; Marlborough, MA, USA). Human PD-L1and PD-1 proteins (both with a Fc Tag) were purchased from ACRO Biosystems (Newark, DE, USA). Carboxymethylated CM 5 SPR chips were purchased from GE Healthcare (Marlborough, MA, USA). The SPR binding channels were set as: Cell-1, blank immobilization; Cell-2, human PD-L1 protein was immobilized by the injection of protein solution (40 μg/mL) in sodium acetate buffer (10 mM; pH 4.5); Cell-3, human PD-1 protein was immobilized by the injection of protein solution (40 μg/mL) in sodium acetate buffer (10 mM; pH 5.0). Approximately, 5500 and 4500 RU of human PD-1 and PD-L1 proteins, respectively, were immobilized on the flow cells with an amine coupling method.

PD-1/PD-L1 = system: PD-1/PD-L1; set-up: method as in PMID 30068796; conditions: homogenous AlphaLISA assay; read-out: IC50 of PD-1/PD-L1 blockade; cited from earlier work

T2 sequence (Q9NZQ7 19-290): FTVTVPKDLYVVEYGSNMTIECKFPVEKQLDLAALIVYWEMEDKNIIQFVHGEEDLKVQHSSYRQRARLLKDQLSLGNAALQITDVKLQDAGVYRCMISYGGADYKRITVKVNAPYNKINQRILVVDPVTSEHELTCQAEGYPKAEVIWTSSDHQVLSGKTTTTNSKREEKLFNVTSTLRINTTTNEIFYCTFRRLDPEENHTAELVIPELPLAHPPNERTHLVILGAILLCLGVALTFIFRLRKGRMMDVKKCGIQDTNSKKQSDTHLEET
T3 sequence (Q15116 25-288): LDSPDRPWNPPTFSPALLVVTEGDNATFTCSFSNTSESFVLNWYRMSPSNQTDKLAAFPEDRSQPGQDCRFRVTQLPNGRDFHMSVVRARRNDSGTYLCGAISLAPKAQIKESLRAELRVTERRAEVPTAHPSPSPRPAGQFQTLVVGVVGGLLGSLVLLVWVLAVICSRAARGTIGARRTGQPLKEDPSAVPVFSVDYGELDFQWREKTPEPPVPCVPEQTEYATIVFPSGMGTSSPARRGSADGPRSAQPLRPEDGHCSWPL
T1 sequence (Q9NZQ7 19-238 limits assumed): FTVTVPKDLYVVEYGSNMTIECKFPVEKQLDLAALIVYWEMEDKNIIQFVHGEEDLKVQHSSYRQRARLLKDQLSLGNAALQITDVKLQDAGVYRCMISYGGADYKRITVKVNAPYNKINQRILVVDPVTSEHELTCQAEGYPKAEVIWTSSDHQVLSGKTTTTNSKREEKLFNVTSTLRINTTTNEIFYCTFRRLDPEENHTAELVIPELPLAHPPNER

Structure (SMILES) | blockade of the PD-1/PD-L1 interaction (PD-1/PD-L1 interaction; compound at 10 μM) [%] | Kd (human PD-L1 protein) | kon (human PD-1 protein) [M⁻¹ s⁻¹] | Kd (human PD-1 protein) | kon (human PD-L1 protein) [M⁻¹ s⁻¹] | blockade of the PD-1/PD-L1 interaction (PD-1/PD-L1 interaction; compound at 100 μM) [%] | further results
O=C1O[C@H]2[C@@H]3OC(=O)c4cc(O)c(O)c(O)c4-c4c(O)c(O)c5oc(=O)c6c(c(O)c(O)c7oc(=O)c4c5c76)-c4c(cc(O)c(O)c4O)C(=O)OC[C@H]3OC(O)[C@@H]2OC(=O)c2cc(O)c(O)c(O)c2-c2c1cc(O)c(O)c2O (mixture of isomers) [punicalagin] | – | – | – | – | – | – | activity in the PD-1/PD-L1 blockade assay (in words) (PD-1/PD-L1 interaction; earlier observation of the authors, concentration not given): not active; binding capacity to PD-1/PD-L1 proteins (in words) (human PD-L1 protein; protein not specified further (PD-1/PD-L1 proteins), earlier observation of the authors): detectable binding capacity
Cc1c(COc2cc(OCc3cccc(C#N)c3)c(CN3C[C@H](O)C[C@@H]3C(=O)O)cc2Cl)cccc1-c1ccc2c(c1)OCCO2 [BMS1166, reference compound] | 99.3 | – | – | – | – | – | –
O=c1oc2c(O)c(O)cc3c(=O)oc4c(O)c(O)cc1c4c23 [EA, ellagic acid] | – | 26.2 µM | 410 | 1.82 µM | – | – | blockade effect on the PD-1/PD-L1 interaction (in words) (PD-1/PD-L1 interaction): not detected
O=C(OC[C@H]1O[C@@H](OC(=O)c2cc(O)c(O)c(O)c2)[C@H](OC(=O)c2cc(O)c(O)c(O)c2)[C@@H](OC(=O)c2cc(O)c(O)c(O)c2)[C@@H]1OC(=O)c1cc(O)c(O)c(O)c1)c1cc(O)c(O)c(O)c1 [PGG, pentagalloyl glucose] | – | 2.23 µM | 3940 | 27.2 µM | 413 | – | blockade effect on the PD-1/PD-L1 interaction (in words) (PD-1/PD-L1 interaction): not detected
CO[C@H]1/C=C/O[C@@]2(C)Oc3c(C)c(O)c4c(c3C2=O)C2=NC3(CCN(CC(C)C)CC3)NC2=C(NC(=O)/C(C)=C\C=C\[C@H](C)[C@H](O)[C@@H](C)[C@@H](O)[C@@H](C)[C@H](OC(C)=O)[C@@H]1C)C4=O [Rifabutin, rifabutin, reference compound] | – | – | – | – | – | 58.6 | binding affinity to PD-L1 protein (in words) (human PD-L1 protein): not detectable; IC50 (PD-1/PD-L1): 25 µM; binding affinity to PD-1 protein (in words) (human PD-1 protein): not detectable
O=C(OC[C@H]1O[C@@H](OC(=O)c2cc(O)c(O)c(OC(=O)c3cc(O)c(O)c(O)c3)c2)[C@H](OC(=O)c2cc(O)c(O)c(OC(=O)c3cc(O)c(O)c(O)c3)c2)[C@@H](OC(=O)c2cc(O)c(O)c(OC(=O)c3cc(O)c(O)c(O)c3)c2)[C@@H]1OC(=O)c1cc(O)c(O)c(OC(=O)c2cc(O)c(O)c(O)c2)c1)c1cc(O)c(O)c(OC(=O)c2cc(O)c(O)c(O)c2)c1 [TA, tannic acid] | 11.0 | 1.21 µM | – | 1.46 µM | – | 36.9 | –
O=c1cc(-c2ccc(O)cc2)oc2cc(O[C@@H]3O[C@H](CO)[C@@H](O)[C@H](O)[C@H]3O)cc(O)c12 [cosmosiin] | – | 3.32 µM | – | – | 785 | 55.8 | selectivity of binding (PD-L1 versus PD-1) (human PD-L1 protein): selective binding to the PD-L1 protein; koff (dissociation rate constant) to PD-L1 (human PD-L1 protein): 0.00261 s⁻¹
O=c1c(O)c(-c2ccc(O)cc2)oc2cc(O)cc(O)c12 [kaempferol] | 4.1 | 33 µM and 32.9 µM | 504 | 0.304 µM and 0.303 µM | 5460 | 63.4 | binding affinity to PD-1 protein relative to PD-L1 protein (human PD-1 protein; PD-1 stronger than PD-L1): 100 fold
Oc1ccc(/C=C/c2cc(O)cc(O)c2)cc1 [resveratrol] | – | 37.9 µM | – | – | – | – | koff (dissociation rate constant) to PD-L1 (human PD-L1 protein): 0.06435 s⁻¹
O=c1oc2cc(O)ccc2c2ccc(O)cc12 [urolithin A] | – | – | – | – | – | 39.7 | binding affinity to PD-L1 protein (in words) (human PD-L1 protein): not detectable; binding affinity to PD-1 protein (in words) (human PD-1 protein): not detectable
